Measured values: patent publication US10335409B2 (priority 2012, dated 2019)

Columns and labels:
[1] = system: genotype 2a (JFH-1) stable HCV replicon in Huh-7-derived cells; test: Stable subgenomic HCV replicon EC50, genotype 2a (Renilla luciferase); format: cell-based, hepatitis C virus; conditions: Hepatitis C virus, stable replicon genotype 2a, 72 h, read-out: EC50 2A RLUC
Method in brief: (§1)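 Compounds, three-fold diluted, were applied to Huh-7-derived cells harbouring luciferase replicons (genotype 1a H77, 1b Con1, 2a JFH-1, 4a ED43, with strain-specific adaptive mutations). Seventy-two hours later, intracellular replication was gauged by Renilla luciferase activity and EC50 derived by regression.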

[2] = target: HCV NS3 protease domain genotype 1b (Hepatitis C virus genotype 1b (isolate Con1), UniProt Q9WMX2, E1202G); test: Ki determination, NS3 protease genotype 1b (fluorogenic depsipeptide substrate); format: biochemical; conditions: 50 pM enzyme, NS4A peptide
Method: Purified NS3 protease domain (amino acids 1-181) of the genotype 1b and 3a virus were generated as above.
Reactions were run at room temperature in buffer consisting of 50 mM HEPES, 40% glycerol, 0.05% Triton X-100, 10 mM DTT, and 10% DMSO. The final assay solutions contained 50 pM NS3 genotype 1 b protease or 200 pM genotype 3a protease, 20 μM NS4A peptide, and 4 μM substrate (genotype 1b) or 2 μM substrate (genotype 3a). Inhibitor concentrations varied from 100 nM to 5 pM in 3-fold dilutions, and no-inhibitor controls were included.
Compound dilutions were made in DMSO at 20× final concentration. Reaction mixtures were prepared in 96-well assay plates. A solution of enzyme and NS4A peptide in assay buffer (25 μL volume with both reagents at 4× final concentration) was mixed with 45 μL assay buffer and 5 μL of either inhibitor or DMSO, and pre-incubated at room temperature for 1 hour. The reaction was started by addition of 25 μL substrate solution at 4× final concentration. Plates were mixed vigorously for 5-10 seconds and reactions were allowed to proceed for 90 minutes, fluorescence was measured every 30 s between 90 and 120 minutes reaction time using a Tecan InfiniTe M1000 or PerkinElmer Envision multimode plate reader with an excitation wavelength of 340 nm and an emission wavelength of 490 nm.
To determine the Ki, rates were plotted as a function of inhibitor concentration, and the data were fit with equation 1 (Morrison, J. F., Biochimica et Biophysica Acta 1969, 185, 269-286) to calculate Ki^app using GraphPad Prism 5. […] Ki was calculated from Ki^app/(1+[[S]/Km]).

[3] = system: genotype 1b NS3/4a protease inhibitor resistant variant D168A transient HCV replicon in Huh-7-derived cells; test: Transient-transfected HCV replicon EC50, genotype 1b D168A; format: cell-based, hepatitis C virus; conditions: Hepatitis C virus, 72 h, read-out: EC50 1B D168A, transient-transfected replicon genotype 1b D168A resistant variant, 72 h
[4] = system: genotype 3a (S52) wild type transient HCV replicon in Huh-7-derived cells; test: Transient-transfected HCV replicon EC50, genotype 3a wild type; format: cell-based, hepatitis C virus; conditions: Hepatitis C virus; transient-transfected replicon genotype 3a wild type, 72 h; read-out: EC50 3A WT
[5] = target: HCV NS3 protease domain genotype 3a (Hepatitis C virus genotype 3a, UniProt Q81258); test: Ki determination, NS3 protease genotype 3a (fluorogenic depsipeptide substrate); format: biochemical; conditions: 200 pM enzyme, NS4A peptide
Method in brief: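 The NS3 protease domain (aa 1-181) with 20 μM NS4A peptide was used at 50 pM with 4 μM substrate (1b) or at 200 pM with 2 μM substrate (3a). Inhibitors (100 nM-5 pM) were pre-incubated 1 h at room temperature in HEPES/glycerol/DTT buffer with 10% DMSO. Steady-state rates (90-120 min) gave Ki via the Morrison equation, corrected for active enzyme and [S]/Km.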

[6] = system: genotype 3a (S52) stable HCV replicon in Huh-7-derived cells; test: Stable subgenomic HCV replicon EC50, genotype 3a (Renilla luciferase); format: cell-based, hepatitis C virus; conditions: Hepatitis C virus, 72 h, read-out: EC50 3A RLUC
[7] = system: genotype 4a (ED43) stable HCV replicon in Huh-7-derived cells; test: Stable subgenomic HCV replicon EC50, genotype 4a (Renilla luciferase); format: cell-based, hepatitis C virus; conditions: Hepatitis C virus, 72 h, read-out: EC50 4A RLUC
Method in brief: as §1

[8] = system: genotype 1a NS3/4a protease inhibitor resistant variant R155K transient HCV replicon in Huh-7-derived cells; test: Transient-transfected HCV replicon EC50, genotype 1a R155K; format: cell-based, hepatitis C virus; conditions: Hepatitis C virus, 72 h, read-out: EC50 1A R155K, transient-transfected replicon genotype 1a R155K resistant variant, 72 h
[9] = system: genotype 1a (H77) wild type transient HCV replicon in Huh-7-derived cells; test: Transient-transfected HCV replicon EC50, genotype 1a wild type; format: cell-based, hepatitis C virus; conditions: Hepatitis C virus, 72 h, transient-transfected replicon genotype 1a wild type, read-out: EC50 1A WT
[10] = system: genotype 1b (Con1) wild type transient HCV replicon in Huh-7-derived cells; test: Transient-transfected HCV replicon EC50, genotype 1b wild type; format: cell-based, hepatitis C virus; conditions: Hepatitis C virus, 72 h, transient-transfected replicon genotype 1b wild type, read-out: EC50 1B WT
[11] = system: genotype 1b (Con1) stable HCV replicon in Huh-7-derived cells; test: Stable subgenomic HCV replicon EC50, genotype 1b (Renilla luciferase); format: cell-based, hepatitis C virus; conditions: Hepatitis C virus, stable replicon genotype 1b, 72 h, read-out: EC50 1B RLUC
Method in brief: as §1

[12] = system: genotype 1a (H77) stable HCV replicon in Huh-7-derived cells; test: Stable subgenomic HCV replicon EC50, genotype 1a (Renilla luciferase); format: cell-based, hepatitis C virus; conditions: Hepatitis C virus, stable replicon genotype 1a, 72 h, read-out: EC50 1A RLUC
Method in brief: as §1

Chain of HCV NS3 protease domain genotype 1b (Q9WMX2 1027-1208 E1202G): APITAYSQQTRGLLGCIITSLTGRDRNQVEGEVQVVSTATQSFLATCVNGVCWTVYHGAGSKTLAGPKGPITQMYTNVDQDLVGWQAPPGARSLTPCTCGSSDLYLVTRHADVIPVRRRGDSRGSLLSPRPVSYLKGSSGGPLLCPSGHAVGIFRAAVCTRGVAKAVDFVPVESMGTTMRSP
Chain of HCV NS3 protease domain genotype 3a (Q81258 whole entry, looked up, the tested form may be a part): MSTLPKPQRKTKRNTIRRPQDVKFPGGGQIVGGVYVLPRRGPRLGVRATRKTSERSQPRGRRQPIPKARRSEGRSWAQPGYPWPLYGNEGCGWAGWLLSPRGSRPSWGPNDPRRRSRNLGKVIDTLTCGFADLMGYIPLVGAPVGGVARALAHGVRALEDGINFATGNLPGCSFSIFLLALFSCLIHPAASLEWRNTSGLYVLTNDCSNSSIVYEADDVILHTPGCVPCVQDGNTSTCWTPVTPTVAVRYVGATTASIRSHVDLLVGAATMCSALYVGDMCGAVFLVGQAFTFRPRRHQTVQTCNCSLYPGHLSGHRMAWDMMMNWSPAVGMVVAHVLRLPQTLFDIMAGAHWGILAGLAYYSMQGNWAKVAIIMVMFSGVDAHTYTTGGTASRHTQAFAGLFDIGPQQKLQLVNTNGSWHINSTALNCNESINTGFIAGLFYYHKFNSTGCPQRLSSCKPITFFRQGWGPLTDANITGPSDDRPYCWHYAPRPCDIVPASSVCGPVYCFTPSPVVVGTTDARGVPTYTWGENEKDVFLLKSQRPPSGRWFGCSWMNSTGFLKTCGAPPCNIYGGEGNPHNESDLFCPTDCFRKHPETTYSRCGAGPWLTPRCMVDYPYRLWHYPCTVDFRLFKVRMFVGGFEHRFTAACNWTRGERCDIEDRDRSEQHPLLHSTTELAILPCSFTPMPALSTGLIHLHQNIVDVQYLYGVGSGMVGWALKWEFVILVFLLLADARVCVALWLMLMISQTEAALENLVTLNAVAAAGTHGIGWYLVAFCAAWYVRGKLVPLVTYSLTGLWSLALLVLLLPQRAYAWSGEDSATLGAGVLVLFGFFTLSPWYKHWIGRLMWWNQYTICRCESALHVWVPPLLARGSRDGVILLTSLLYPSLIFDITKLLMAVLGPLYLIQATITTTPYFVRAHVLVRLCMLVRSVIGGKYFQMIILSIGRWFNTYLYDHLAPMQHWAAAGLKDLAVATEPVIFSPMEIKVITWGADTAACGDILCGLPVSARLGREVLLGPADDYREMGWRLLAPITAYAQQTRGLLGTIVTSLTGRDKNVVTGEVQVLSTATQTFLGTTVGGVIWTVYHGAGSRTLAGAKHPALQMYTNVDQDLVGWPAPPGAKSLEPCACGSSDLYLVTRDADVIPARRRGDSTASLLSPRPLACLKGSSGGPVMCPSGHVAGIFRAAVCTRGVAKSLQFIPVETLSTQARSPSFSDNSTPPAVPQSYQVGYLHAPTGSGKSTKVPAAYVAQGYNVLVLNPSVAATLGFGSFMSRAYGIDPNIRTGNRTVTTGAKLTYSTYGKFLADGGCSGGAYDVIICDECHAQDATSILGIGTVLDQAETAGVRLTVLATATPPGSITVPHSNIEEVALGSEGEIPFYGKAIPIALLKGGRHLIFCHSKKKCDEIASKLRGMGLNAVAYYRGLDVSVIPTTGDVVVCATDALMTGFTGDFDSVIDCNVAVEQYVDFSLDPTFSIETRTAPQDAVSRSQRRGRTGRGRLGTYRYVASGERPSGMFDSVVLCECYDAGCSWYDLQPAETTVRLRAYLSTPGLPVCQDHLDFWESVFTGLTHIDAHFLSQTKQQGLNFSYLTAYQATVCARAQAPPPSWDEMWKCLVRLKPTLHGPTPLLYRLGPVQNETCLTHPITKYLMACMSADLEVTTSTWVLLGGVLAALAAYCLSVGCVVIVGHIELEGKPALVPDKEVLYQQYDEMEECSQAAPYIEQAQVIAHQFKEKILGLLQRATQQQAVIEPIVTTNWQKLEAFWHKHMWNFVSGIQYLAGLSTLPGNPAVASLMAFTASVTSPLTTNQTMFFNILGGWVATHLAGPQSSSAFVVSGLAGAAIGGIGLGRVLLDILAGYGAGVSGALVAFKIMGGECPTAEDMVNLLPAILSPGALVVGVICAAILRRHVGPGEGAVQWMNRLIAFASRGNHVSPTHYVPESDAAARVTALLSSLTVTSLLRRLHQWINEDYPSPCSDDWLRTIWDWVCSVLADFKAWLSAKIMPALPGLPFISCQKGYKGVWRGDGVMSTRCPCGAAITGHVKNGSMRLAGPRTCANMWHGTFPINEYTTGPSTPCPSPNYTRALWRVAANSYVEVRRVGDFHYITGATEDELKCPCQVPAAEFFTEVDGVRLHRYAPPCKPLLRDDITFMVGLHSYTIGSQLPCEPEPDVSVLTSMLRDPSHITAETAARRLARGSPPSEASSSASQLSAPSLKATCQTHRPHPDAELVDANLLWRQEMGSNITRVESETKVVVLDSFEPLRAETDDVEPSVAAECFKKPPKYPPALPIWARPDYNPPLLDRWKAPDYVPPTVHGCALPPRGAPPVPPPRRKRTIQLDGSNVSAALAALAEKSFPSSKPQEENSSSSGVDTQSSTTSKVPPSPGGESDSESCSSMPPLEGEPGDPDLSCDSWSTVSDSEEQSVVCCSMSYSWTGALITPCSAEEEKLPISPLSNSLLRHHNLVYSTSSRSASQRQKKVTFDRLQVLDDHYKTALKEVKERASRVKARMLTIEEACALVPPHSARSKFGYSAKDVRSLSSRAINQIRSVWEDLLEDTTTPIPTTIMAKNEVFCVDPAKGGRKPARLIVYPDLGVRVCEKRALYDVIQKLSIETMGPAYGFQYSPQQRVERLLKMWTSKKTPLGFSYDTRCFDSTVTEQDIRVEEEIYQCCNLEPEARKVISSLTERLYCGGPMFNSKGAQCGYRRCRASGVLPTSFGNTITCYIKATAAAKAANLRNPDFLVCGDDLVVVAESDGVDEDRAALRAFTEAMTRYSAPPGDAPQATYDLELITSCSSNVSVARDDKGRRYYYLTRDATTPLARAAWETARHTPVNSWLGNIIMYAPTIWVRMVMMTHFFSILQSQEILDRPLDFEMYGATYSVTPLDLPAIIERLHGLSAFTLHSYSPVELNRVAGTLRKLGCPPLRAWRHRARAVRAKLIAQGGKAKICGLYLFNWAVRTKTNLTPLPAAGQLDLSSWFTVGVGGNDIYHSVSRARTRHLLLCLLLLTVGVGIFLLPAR

Compound	EC50 [1]	Ki [2]	EC50 [3]	EC50 [4]	Ki [5]	EC50 [6]	EC50 [7]	EC50 [8]	EC50 [9]	EC50 [10]	EC50 [11]	EC50 [12]
CC[C@@H]1[C@@H]2CN(C(=O)[C@H](C(C)(C)C)NC(=O)O[C@@H]3C[C@H]3CCCCCc3nc4ccc(OCC(F)(F)F)cc4nc3O2)[C@@H]1C(=O)N[C@]1(C(=O)NS(=O)(=O)C2(C)CC2)C[C@H]1C(F)F [Example 55, (1aR,5S,8S,9S,10R,22aR)-5-tert-butyl-N-[(1R,2R)-2-(difluoromethyl)-1-{[(1-methylcyclopropyl)sulfonyl]carbamoyl}cyclopropyl]-9-ethyl-3,6-dioxo-14-(2,2,2-trifluoroethoxy)-1,1a,3,4,5,6,9,10,18,19,20,21,22,22a-tetradecahydro-8H-7,10-methanocyclopropa[18,19][1,10,3,6]dioxadiazacyclononadecino[11,12-b]quinoxaline-8-carboxamide]	12 nM	0.09 nM	53 nM	71 nM	0.2 nM	140 nM	3.5 nM	32 nM	8 nM	2.3 nM	3.8 nM	13 nM
CC[C@@H]1[C@@H]2CN(C(=O)[C@H](C(C)(C)C)NC(=O)O[C@@H]3C[C@@H]4C[C@@H]4[C@H]3CCCCC(F)(F)c3nc4ccc(OC)cc4nc3O2)[C@@H]1C(=O)N[C@]1(C(=O)NS(=O)(=O)C2CC2)C[C@H]1C(F)F [Example 59, (1aS,2aR,6S,9S,10 S,11R,23aR,23bS)-6-tert-butyl-N-[(1R,2R)-1-[(cyclopropylsulfonyl)carbamoyl]-2-(difluoromethyl)cyclopropyl]-10-ethyl-19,19-difluoro-15-methoxy-4,7-dioxo-1a,2,2a,4,5,6,7,10,11,19,20,21,22,23,23a,23b-hexadecahydro-1H,9H-8,11-methanocyclopropa[4′,5′]cyclopenta[1′,2′:18,19][1,10,3,6]dioxadiazacyclononadecino[11,12-b]quinoxaline-9-carboxamide]	13 nM	0.04 nM	6.4 nM	15 nM	0.06 nM	20 nM	5.6 nM	6.8 nM	10 nM	6.8 nM	11 nM	5.4 nM
CCC[C@@H]1[C@@H]2CN(C(=O)[C@H](C(C)(C)C)NC(=O)O[C@@H]3C[C@H]3CCCCC(F)(F)c3nc4ccc(OC)cc4nc3O2)[C@@H]1C(=O)N[C@]1(C(=O)NS(=O)(=O)C2CC2)C[C@H]1C(F)F [Example 60, (1aR,5S,8S,9S,10R,22aR)-5-tert-butyl-N-[(1R,2R)-1-[(cyclopropylsulfonyl)carbamoyl]-2-(difluoromethyl)cyclopropyl]-18,18-difluoro-14-methoxy-3,6-dioxo-9-propyl-1,1a,3,4,5,6,9,10,18,19,20,21,22,22a-tetradecahydro-8H-7,10-methanocyclopropa[18,19][1,10,3,6]dioxadiazacyclononadecino[11,12-b]quinoxaline-8-carboxamide]	7.7 nM	0.04 nM	15 nM	9.8 nM	0.08 nM	45 nM	5.4 nM	8.6 nM	5.8 nM	2.3 nM	4.8 nM	11 nM
COc1ccc2nc3c(nc2c1)O[C@H]1CN(C(=O)[C@H](C(C)(C)C)NC(=O)O[C@@H]2C[C@@H]4C[C@@H]4[C@H]2CCCCC3(F)F)[C@H](C(=O)N[C@]2(C(=O)NS(=O)(=O)C3CC3)C[C@H]2C(F)F)[C@@H]1C [Example 62, (1aS,2aR,6S,9S,10S,11R,23aR,23bS)-6-tert-butyl-N-[(1R,2R)-1-[(cyclopropylsulfonyl)carbamoyl]-2-(difluoromethyl)cyclopropyl]-19,19-difluoro-15-methoxy-10-methyl-4,7-dioxo-1a,2,2a,4,5,6,7,10,11,19,20,21,22,23,23a,23b-hexadecahydro-1H,9H-8,11-methanocyclopropa[4′,5′]cyclopenta[1′,2′:18,19][1,10,3,6]dioxadiazacyclononadecino[11,12-b]quinoxaline-9-carboxamide]	5 nM	0.04 nM	2 nM	4 nM	0.03 nM	8.5 nM	2.4 nM	2.7 nM	3.5 nM	1.5 nM	3 nM	3.4 nM
CC[C@@H]1[C@@H]2CN(C(=O)[C@H](C(C)(C)C)NC(=O)O[C@@H]3C[C@@H]4C[C@@H]4[C@H]3CCCCCc3nc4ccc(OC)cc4nc3O2)[C@@H]1C(=O)N[C@]1(C(=O)NS(=O)(=O)C2CC2)C[C@H]1C(F)F [Example 70, (1aS,2aR,6S,9S,10S,11R,23aR,23bS)-6-tert-butyl-N-[(1R,2R)-1-[(cyclopropylsulfonyl)carbamoyl]-2-(difluoromethyl)cyclopropyl]-10-ethyl-15-methoxy-4,7-dioxo-1a,2,2a,4,5,6,7,10,11,19,20,21,22,23,23a,23b-hexadecahydro-1H,9H-8,11-methanocyclopropa[4′,5′]cyclopenta[1′,2′:18,19][1,10,3,6]dioxadiazacyclononadecino[11,12-b]quinoxaline-9-carboxamide]	15 nM	0.05 nM	7.3 nM	17 nM	0.05 nM	41 nM	6.4 nM	5.4 nM	7.7 nM	6.1 nM	8.5 nM	8.4 nM
C[C@@H]1[C@@H]2CN(C(=O)[C@H](C(C)(C)C)NC(=O)O[C@@H]3C[C@@H]4C[C@@H]4[C@H]3CCCCCc3nc4ccc(Cl)cc4nc3O2)[C@@H]1C(=O)N[C@]1(C(=O)NS(=O)(=O)C2CC2)C[C@H]1C(F)F [Example 79, (1aS,2aR,6S,9S,10S,11R,23aR,23bS)-6-tert-butyl-15-chloro-N-[(1R,2R)-1-[(cyclopropylsulfonyl)carbamoyl]-2-(difluoromethyl)cyclopropyl]-10-methyl-4,7-dioxo-1a,2,2a,4,5,6,7,10,11,19,20,21,22,23,23a,23b-hexadecahydro-1H,9H-8,11-methanocyclopropa[4′,5′]cyclopenta[1′,2′:18,19][1,10,3,6]dioxadiazacyclononadecino[11,12-b]quinoxaline-9-carboxamide]	4.1 nM	0.06 nM	11 nM	9.2 nM	0.06 nM	71 nM	5.6 nM	7.1 nM	6.1 nM	3 nM	5.8 nM	7 nM
